Reference: patent US8198446B2, “Crystalline micropowder particles” (Toray Industries, Inc., priority 2007, dated 2012)
Several values for one entry are separate records, joined by “and”; a condition that tells them apart may be missing. Equal entries are not always repeated.

Legend:
Format in all cases: physicochemical
[1] = Check of crystalline state and measurement of degree of crystallinity by powder X-ray diffraction; conditions: for Degree of Crystallinity: powder X-ray diffraction, Xc=(Sc/(Sc+Sa))×100
Procedure: The degree of crystallinity of the crystalline finely-ground particles according to the present invention is calculated from the integrated intensity ratio of crystalline peaks and amorphous halo which are extracted from an X-ray diffraction pattern obtained by powder X-ray diffraction measurement.
The powder X-ray diffraction measurement may be carried out by using, for example, a powder X-ray diffractometer (2200/RINT Ultima+PC) manufactured by Rigaku as described in Evaluation 2 of the present invention. In preparation of a measurement sample, 100 mg of a sample material is filled in a glass sample plate (0.2 mm depth) in non-destructive condition, and the surface of the sample material is leveled out using a glass plate to obtain a measurement sample. An example of the measurement condition is as follows, which was used in the present invention.
The degree of crystallinity may be calculated by a known analysis method using diffraction patterns of a sample material and sample plate alone (without a sample material) and a difference pattern thereof. For example, using a powder X-ray diffraction pattern analysis software JADE5.0 produced by MDI, which is a commercially available analysis software, a degree of crystallinity may be calculated as follows.
• (1) A difference pattern of the diffraction patterns of a sample material and sample plate alone is smoothed (Savitzky-Goray filter: 19 points). • (2) For a display area of the difference pattern, the x-axis: diffraction angle (2θ) is set between 2 deg and 90 deg, and the y-axis: diffraction intensity (Counts) is set between 0 and 500. • (3) Points are set at diffraction angles of […], 65 and 90 deg, respectively, and a straight line parallel to the x-axis is drawn such that the line is contact with the difference diffraction pattern at a range of 65 deg to 90 deg. The area below the line is determined as a background. • (4) The background is subtracted. • (5) An integrated intensity at a range of 4 deg to 60 deg is calculated (which corresponds to a sum of the integrated intensity of crystalline peaks and an amorphous halo: Sc+Sa) • (6) Points are set at diffraction angles of 2, 7, 18, 26, 30, 35, 59, 65 and 90 deg, respectively. At 2, 65 and 90 deg, the diffraction intensity is set as 0, and at 7, 18, 26, 30, 35 and 59 deg, an approximation by a cubic spline is made such that the approximation formula is in contact with the difference pattern obtained after the subtraction of the background, thereby estimating an amorphous halo. • (7) The amorphous halo is subtracted. • (8) The integrated intensity at a range of 4 deg to 60 deg is calculated (which corresponds to the integrated intensity of the crystalline peaks: Sc). • (9) A degree of crystallinity is calculated according to the following equation. Xc=(Sc/(Sc+Sa))×100 Equation • Xc: Degree of crystallinity (%) • Sc: Integrated intensity of the crystalline peaks • Sa: Integrated intensity of the amorphous halo
For check of the crystalline state and measurement of the degree of crystallinity, powder X-ray diffraction measurement was carried out using a powder X-ray diffraction analyzer (2200/RINT Ultima+PC) manufactured by Rigaku.

[2] = Measurement of particle diameter distribution (laser diffraction, dry measurement, Mastersizer 2000); conditions: for Particle Diameter Distribution D50 / Particle Diameter Distribution D90: dry measurement, volume basis
Procedure: In the present invention, D50 and D90 are indices for defining particle diameter distribution. Particle diameter distribution is usually called particle size distribution. Particles are divided into groups along with their size with appropriate intervals, and weight (volume) or particle number of the particles belonging to each group is measured to obtain the particle number (frequency) of each group. Taking the particle number (frequency) along the ordinate and taking the particle diameter along the abscissa, a particle diameter distribution is shown as a histogram, frequency curve, cumulative curve or the like. In the present invention, frequency was calculated based on volume. In the particle diameter distribution obtained in such a manner, D50 means the particle diameter at the point where the volume which is cumulatively measured from smaller particles reaches 50%, that is, the point where the cumulative frequency of the volume distribution reaches 50%. D90 means the particle diameter at the point where the volume which is cumulatively measured from smaller particles reaches 90%, that is, the point where the cumulative frequency of the volume distribution reaches 90%. Cumulative frequency (%) of particles which have a smaller diameter than a specified particle diameter can also be calculated from such a distribution chart.
Measurement of the particle diameter distribution of the crystalline finely-ground particles according to the present invention may be carried out with a commercially available apparatus using laser diffraction/scattering based on Mie Theory. For example, the measurement is carried out using a commercially available apparatus such as Malvern (registered trademark) Mastersizer Laser Diffraction Analyzer (Malvern Instruments Ltd). This analyzer irradiates He—Ne laser beam and blue light-emitting diode on particles to obtain a light scattering pattern which occurs on a detector by the irradiation, and then analyzes the light scattering pattern according to Mie Theory to determine the particle diameter distribution. […] An example of the measurement condition is as follows, which was used in Evaluation 1 of the present invention.
• Apparatus: Laser diffraction-based particle size distribution analyzer Mastersizer 2000 (Malvern) • Dry measurement unit: Scircco 2000 • Refractive Index of Samples: Real part; 1.810, Imaginary part; 0 • Time for Sample Measurement: 1 second • Time for Background Measurement: 5 seconds • Pressure: 2.0 bar • Feed Rate: 40% • Analysis Model: Single narrow mode • Calculation Sensitivity Enhanced • Particle Shape Irregular • Analysis Range: 0.020 to 2000 μm • Basis of Size Distribution Measurement: Volume
The particle diameter distribution of the subject compound was measured by dry measurement using a particle size distribution analyzer (Mastersizer 2000, manufactured by Malvern). D50 and D90 were calculated as an index of the particle diameter distribution.

[3] = Storage stability (1): content of pharmaceutical active substance by HPLC, 60° C./75% RH opened
Procedure: For comparison of storage stability, the ground pharmaceutical active substance of Example 6 (crystallinity 88%) which was ground with a jet mill pulverizer Co-jet (α-mkII: manufactured by Seishin Enterprise) and that of Comparative Example 7 (crystallinity 73%) which was ground with a mortar and pestle were left under the storage condition of 60° C./75% RH opened, and the content of the pharmaceutical active substance was analyzed by HPLC 0.5 and 2 months after the start of the storage (Table 6).

[4] = Storage stability (2): total amount of related substances by HPLC, 60° C./75% RH opened
Procedure: For comparison of storage stability, the ground pharmaceutical active substance of Comparative Example 4 (grinding for 3 min), Comparative Example 5 (grinding for 6 min) and Comparative Example 6 (grinding for 7 min), all of which were ground with Table Ball Mill (model V-2M: manufactured by Irie Shokai), were left under the storage condition of 60° C./75% RH opened, and the total amount of related substances was analyzed by HPLC 0.5 and 2 months after the start of the storage (Table 7).

[5] = 60° C./75% RH opened, 0.5-Month Later
[6] = 60° C./75% RH opened, 2-Month Later

SMILES	Degree of Crystallinity [1] [%]	Particle Diameter Distribution D50 [2] [μm]	Particle Diameter Distribution D90 [2]	other results
O=C1c2ccccc2C(=O)N1[C@@H]1CC[C@@]2(O)[C@H]3Cc4ccc(O)c5c4[C@@]2(CCN3CC2CC2)[C@H]1O5 [Comparative Example 1, N-(17-cyclopropylmethyl-4,5α-epoxy-3,14-dihydroxy-morphinan-6β-yl)-phthalimide]	97	32.4	110 μm	Cumulative Frequency of Volume Distribution Which Is Occupied by Particles with Volume-Based Particle Diameter 15 (μm) or Less [2]: 23.3%
O=C1c2ccccc2C(=O)N1[C@@H]1CC[C@@]2(O)[C@H]3Cc4ccc(O)c5c4[C@@]2(CCN3CC2CC2)[C@H]1O5 [Comparative Example 7, N-(17-cyclopropylmethyl-4,5α-epoxy-3,14-dihydroxy-morphinan-6β-yl)-phthalimide]				Content of Pharmaceutical Active Substance by HPLC [3, 5]: 98.85%; Degree of Decrease Based on Start of Storage [3, 5]: 1.64; Content of Pharmaceutical Active Substance by HPLC [3, 6]: 98.51%; Degree of Decrease Based on Start of Storage [3, 6]: 2.13; Content of Pharmaceutical Active Substance by HPLC ([3]; At Start of Storage): 99.30%
O=C1c2ccccc2C(=O)N1[C@@H]1CC[C@@]2(O)[C@H]3Cc4ccc(O)c5c4[C@@]2(CCN3CC2CC2)[C@H]1O5 [Example 7, N-(17-cyclopropylmethyl-4,5α-epoxy-3,14-dihydroxy-morphinan-6β-yl)-phthalimide]	87	5.67	16.1 μm	
O=C1c2ccccc2C(=O)N1[C@@H]1CC[C@@]2(O)[C@H]3Cc4ccc(O)c5c4[C@@]2(CCN3CC2CC2)[C@H]1O5 [Comparative Example 4, N-(17-cyclopropylmethyl-4,5α-epoxy-3,14-dihydroxy-morphinan-6β-yl)-phthalimide]	82	17.1	168 μm	Total Amount of Related Substances [4, 5]: 0.38%; Total Amount of Related Substances ([4]; At Start of Storage): 0.23%
O=C1c2ccccc2C(=O)N1[C@@H]1CC[C@@]2(O)[C@H]3Cc4ccc(O)c5c4[C@@]2(CCN3CC2CC2)[C@H]1O5 [Example 9, N-(17-cyclopropylmethyl-4,5α-epoxy-3,14-dihydroxy-morphinan-6β-yl)-phthalimide]	89	11.5	30.9 μm	
O=C1c2ccccc2C(=O)N1[C@@H]1CC[C@@]2(O)[C@H]3Cc4ccc(O)c5c4[C@@]2(CCN3CC2CC2)[C@H]1O5 [Comparative Example 6, N-(17-cyclopropylmethyl-4,5α-epoxy-3,14-dihydroxy-morphinan-6β-yl)-phthalimide]	61	23.0	436 μm	Total Amount of Related Substances [4, 5]: 0.67%; Total Amount of Related Substances [4, 6]: 1.27%; Total Amount of Related Substances ([4]; At Start of Storage): 0.24%
O=C1c2ccccc2C(=O)N1[C@@H]1CC[C@@]2(O)[C@H]3Cc4ccc(O)c5c4[C@@]2(CCN3CC2CC2)[C@H]1O5 [Example 5, N-(17-cyclopropylmethyl-4,5α-epoxy-3,14-dihydroxy-morphinan-6β-yl)-phthalimide]	90	7.83	16.0 μm	
O=C1c2ccccc2C(=O)N1[C@@H]1CC[C@@]2(O)[C@H]3Cc4ccc(O)c5c4[C@@]2(CCN3CC2CC2)[C@H]1O5 [Example 4, N-(17-cyclopropylmethyl-4,5α-epoxy-3,14-dihydroxy-morphinan-6β-yl)-phthalimide]	96	14.6	47.8 μm	Cumulative Frequency of Volume Distribution Which Is Occupied by Particles with Volume-Based Particle Diameter 15 (μm) or Less [2]: 51.7%
O=C1c2ccccc2C(=O)N1[C@@H]1CC[C@@]2(O)[C@H]3Cc4ccc(O)c5c4[C@@]2(CCN3CC2CC2)[C@H]1O5 [Example 3, N-(17-cyclopropylmethyl-4,5α-epoxy-3,14-dihydroxy-morphinan-6β-yl)-phthalimide]	94	9.89	29.4 μm and 28.4 μm	Cumulative Frequency of Volume Distribution Which Is Occupied by Particles with Volume-Based Particle Diameter 15 (μm) or Less [2]: 70.8%
O=C1c2ccccc2C(=O)N1[C@@H]1CC[C@@]2(O)[C@H]3Cc4ccc(O)c5c4[C@@]2(CCN3CC2CC2)[C@H]1O5 [Example 6, N-(17-cyclopropylmethyl-4,5α-epoxy-3,14-dihydroxy-morphinan-6β-yl)-phthalimide]		5.13	11.2 μm	Content of Pharmaceutical Active Substance by HPLC [3, 5]: 99.15%; Degree of Decrease Based on Start of Storage [3, 5]: 1.39; Content of Pharmaceutical Active Substance by HPLC [3, 6]: 99.09%; Degree of Decrease Based on Start of Storage [3, 6]: 1.49; Content of Pharmaceutical Active Substance by HPLC ([3]; At Start of Storage): 99.39%
O=C1c2ccccc2C(=O)N1[C@@H]1CC[C@@]2(O)[C@H]3Cc4ccc(O)c5c4[C@@]2(CCN3CC2CC2)[C@H]1O5 [Example 1, N-(17-cyclopropylmethyl-4,5α-epoxy-3,14-dihydroxy-morphinan-6β-yl)-phthalimide]	89	4.25	9.14 μm	
O=C1c2ccccc2C(=O)N1[C@@H]1CC[C@@]2(O)[C@H]3Cc4ccc(O)c5c4[C@@]2(CCN3CC2CC2)[C@H]1O5 [Comparative Example 3, N-(17-cyclopropylmethyl-4,5α-epoxy-3,14-dihydroxy-morphinan-6β-yl)-phthalimide]				crystalline state by powder X-ray diffraction ([1]; Eight hours after grinding with ball mill): converted into an amorphous material
O=C1c2ccccc2C(=O)N1[C@@H]1CC[C@@]2(O)[C@H]3Cc4ccc(O)c5c4[C@@]2(CCN3CC2CC2)[C@H]1O5 [Example 8, N-(17-cyclopropylmethyl-4,5α-epoxy-3,14-dihydroxy-morphinan-6β-yl)-phthalimide]	92	11.8	35.3 μm	
